Test results from patent publication US7485641B2, “Substituted 3-amino-pyrrolidino-4-lactams” (Pfizer, Inc., priority 2006, dated 2009).
Structures can show the parent of a compound that is named as a salt.

Molecular target: T1, DPP-IV (Homo sapiens, UniProt P27487)
T1 construct: purchased Enzyme Systems Products SPE-01
Test: In vitro assay for dipeptidyl peptidase inhibition
Format: biochemical
Conditions: at 300 nM; n-value given in brackets

T1 sequence (P27487 whole entry, species assumed): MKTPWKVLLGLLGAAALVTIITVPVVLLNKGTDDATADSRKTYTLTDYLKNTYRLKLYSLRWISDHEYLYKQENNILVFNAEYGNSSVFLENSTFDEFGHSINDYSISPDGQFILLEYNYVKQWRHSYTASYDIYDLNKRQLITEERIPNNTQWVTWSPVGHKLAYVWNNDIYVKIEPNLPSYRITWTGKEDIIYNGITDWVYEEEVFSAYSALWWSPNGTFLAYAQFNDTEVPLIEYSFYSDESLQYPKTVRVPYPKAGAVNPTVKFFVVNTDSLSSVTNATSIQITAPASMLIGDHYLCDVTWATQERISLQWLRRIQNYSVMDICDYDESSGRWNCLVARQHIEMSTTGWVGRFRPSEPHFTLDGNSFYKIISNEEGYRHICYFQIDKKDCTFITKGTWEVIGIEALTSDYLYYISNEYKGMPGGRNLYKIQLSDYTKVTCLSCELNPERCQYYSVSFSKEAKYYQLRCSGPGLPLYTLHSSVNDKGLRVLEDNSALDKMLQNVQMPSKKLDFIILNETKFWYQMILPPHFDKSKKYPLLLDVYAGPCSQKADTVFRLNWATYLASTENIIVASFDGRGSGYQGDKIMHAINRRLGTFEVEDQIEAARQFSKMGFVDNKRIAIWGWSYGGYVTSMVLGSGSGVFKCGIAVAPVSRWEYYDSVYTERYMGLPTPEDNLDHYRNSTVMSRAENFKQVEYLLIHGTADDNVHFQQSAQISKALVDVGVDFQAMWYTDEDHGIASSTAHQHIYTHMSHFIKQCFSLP

SMILES | DPP-IV Percent Inhibition at 300 nM
CCOc1ncc2c(n1)CCN(c1ncnc(N3C[C@H](N)[C@@H](N4CCCCC4=O)C3)n1)C2.O=C(O)C(F)(F)F [Example 72, 1-((3S,4S)-4-Amino-1-(4-(2-ethoxy-7,8-dihydropyrido[4,3-d]pyrimidin-6(5H)-yl)-1,3,5-triazin-2-yl)pyrrolidin-3-yl)piperidin-2-onetrifluoroacetate] | 13.1%(4)

Same assay, conditions: at 300 nM; n-value given in brackets; read-out: DPP-IV Percent Inhibition at 300 nM

SMILES | inhibition at 0.3 µM
N[C@H]1CN(c2cc(N3CCc4noc(C(F)(F)F)c4C3)ncn2)C[C@@H]1N1CCCCC1=O [Example 81, 1-((3S,4S)-4-amino-1-(6-(3-(trifluoromethyl)-6,7-dihydroisoxazolo[4,3-c]pyridin-5(4H)-yl)pyrimidin-4-yl)pyrrolidin-3-yl)piperidin-2-one trifluoroacetate] | 44.5%

Same assay, conditions: n-value given in brackets; read-out: DPP-IV IC50

SMILES | IC50
N[C@H]1CN(c2cc(N3CCS(=O)(=O)CC3)ncn2)C[C@@H]1N1CCCC1=O [Example 69, 1-((3S,4S)-4-Amino-1-[6-(1,1-dioxo-6-thiomorpholin-4-yl)-pyrimidin-4-yl]-pyrrolidin-3-yl)pyrrolidin-2-onedihydrochloride] | 1.06 µM
N[C@H]1CN(c2ncnc(N3CCc4sccc4C3)n2)C[C@@H]1N1CCCCC1=O [Example 71, 1-{(3S,4S)-4-Amino-1-[4-(6,7-dihydro-4H-thieno[3,2-c]pyridine-5-yl)-[1,3,5]triazin-2-yl]-pyrrolidin-3-yl}-piperidin-2-onetrifluoroacetate] | 0.139 µM
N[C@H]1CN(c2cc(NC3CC3)ncn2)C[C@@H]1N1CCCCC1=O [Example 73, 1-[(3S,4S)-4-Amino-1-(6-cyclopropylamino-pyrimidin-4-yl)-pyrrolidin-3-yl]-piperidin-2-onedihydrochloride] | 0.0742 µM
N[C@H]1CN(c2cc(NC3CC3)ncn2)C[C@@H]1N1CCCC1=O [Example 74, 1-((3S,4S)-4-Amino-1-(6-cyclopropylamino-pyrimidin-4-yl)pyrrolidin-3-yl)pyrrolidin-2-onetrihydrochloride] | 1.4 µM
N[C@H]1CN(c2ncnc(NC3CCCCC3)n2)C[C@@H]1N1CCCCC1=O [Example 75, 1-[(3S,4S)-4-Amino-1-(4-cyclohexylamino-[1,3,5]triazin-2-yl)-pyrrolidin-3-yl]-piperidin-2-onetrifluoroacetate] | 0.169 µM
N[C@H]1CN(c2ncnc(N3CCc4nocc4C3)n2)C[C@@H]1N1CCCCC1=O [Example 76, 1-{(3S,4S)-4-Amino-1-[4-(6,7-dihydro-4H-isoxazolo[4,3-c]pyridine-5-yl)-[1,3,5]triazin-2-yl]-pyrrolidin-3-yl}-piperidin-2-one trifluoroacetate] | 0.0237 µM
N[C@H]1CN(c2cc(N3CCc4nocc4C3)nc(C(F)(F)F)n2)C[C@@H]1N1CC(F)(F)CCC1=O [Example 77, 1-{(3S,4S)-4-amino-1-[6-(6,7-dihydro-4H-isoxazolo[4,3-c]pyridin-5-yl)-2-trifluoromethyl-pyrimidin-4-yl]-pyrrolidin-3-yl}-5,5-difluoro-piperidin-2-one] | 0.0335 µM
N[C@H]1CN(c2cc(N3CCc4nocc4C3)nc(C(F)(F)F)n2)C[C@@H]1N1CCCCC1=O [Example 78, 1-((3S,4S)-4-amino-1-(6-(6,7-dihydroisoxazolo[4,3-c]pyridin-5(4H)-yl)-2-(trifluoromethyl)pyrimidin-4-yl)pyrrolidin-3-yl)piperidin-2-one] | 0.0394 µM
N[C@H]1CN(c2ncnc(N3CCc4nocc4C3)c2F)C[C@@H]1N1CCCCC1=O [Example 79, 1-((3S,4S)-4-amino-1-(6-(6,7-dihydroisoxazolo[4,3-c]pyridin-5(4H)-yl)-5-fluoropyrimidin-4-yl)pyrrolidin-3-yl)piperidin-2-one] | 0.0617 µM
N[C@H]1CN(c2cc(-c3ccccc3)ncn2)C[C@@H]1N1CC(F)(F)CCC1=O [Example 82, 1-((3S,4S)-4-amino-1-(6-phenylpyrimidin-4-yl)pyrrolidin-3-yl)-5,5-difluoropiperidin-2-one trifluoroacetate] | 0.0288 µM
